In brackets after ≈: the same amount, converted by molar mass. Where two headings read alike, the source gives them in different places.
Key:
HIV-1 (IIIB isolate) [1] = details: cited from earlier work
HIV-1 (IIIB isolate) [2] = test: microbe, parasite or virus in culture; format: cell-based; details: for Therapeutic Index / therapeutic index (TI): 5760 min
Method: (§1) The H9 T cell line was maintained in continuous culture with complete medium (RPMI and 10% fetal calf serum) at 5% CO2 and 37° C. and was used in experiments only when in log phase of growth. The cells were incubated with HIV-1 (IIIB isolate, TCID50 10^4 IU/mL, at a multiplicity of infection of 0.1-0.01 IU/cell) for 1 hour at 37° C. and 5% CO2. The cells then were washed thoroughly to remove unabsorbed virions and resuspended at 4×10^5 cells/mL in complete medium. Aliquots (1 mL) were placed in wells of 24-well culture plates containing an equal volume of test compound (diluted in the culture medium). After a four day incubation at 37° C., cell density of uninfected cultures was determined by counting cells in a Coulter counter to assess toxicity of the test compound. A p24 antigen ELISA assay was used to determine the level of virus released in the medium of the HIV-infected cultures. The p24 antigen assay uses an HIV-1 anti-p24 specific monoclonal antibody as the capture antibody coated on 96 well plates. Following a sample incubation period, rabbit serum containing antibodies for HIV-1 p24 is used to tag any p24 "captured" onto the microtiter well surface. […] The cut-off for the p24 ELISA assay is 12.5 pg/mL. P24 in the culture medium was quantitated against a standard curve containing known amounts of p24. The effective (EC50) and inhibitory concentrations (for anti-HIV activity and cytotoxicity, respectively) were determined.

H9 T cell line = test: Toxicity to uninfected H9 cells (cell count); format: cell-based
Method: as §1

[3] = target: T1, HIV reverse transcriptase associated RNase H (HIV-1 M:B_HXB2R, UniProt P04585); test: HIV reverse transcriptase associated RNase H activity; format: biochemical
T1 construct: cut from Gag-Pol polyprotein

[4] = test system: chronically HIV-1 infected promonocytic cell line, U1; test: Virus expression in chronically HIV-1 infected promonocytic U1 cells (p24 ELISA); format: cell-based; details: for induction of virus expression / alteration in the level of virus expression: 72 hours; for induction of virus expression: cultured alone; for alteration in the level of virus expression: in presence of PMA
Method: Therefore, compounds 4 and 5 were separately added for 72 hours to the chronically HIV-1 infected T cell line, ACH-2, and to the chronically HIV-1 infected promonocytic cell line, U1.
(§2) HIV-1 chronically infected T cell line, ACH-2, ^15 and HIV-1 chronically infected promonocytic cell line, U1 ^16 were continuously maintained in RPMI1640 with 10% fetal calf serum (FCS). For experiments, the cell lines were only used in log-phase of growth. Cells (1×10^6 cells/well) and either various concentrations of 4,5, AZT or media alone were added to 24-well plates in the presence or absence of PMA (10^-8 M). After 72 hours at 37° C. and 5% CO2, an aliquot of the cell-free supernatants was collected and analyzed for p24 antigen by ELISA.

[5] = test system: chronically HIV-1 infected T cell line, ACH-2; test: Virus expression in chronically HIV-1 infected T cell line ACH-2 (p24 ELISA); format: cell-based; details: 72 hours; for induction of virus expression: cultured alone; for alteration in the level of virus expression: in presence of PMA
Method: Data obtained by using chronically HIV-1 infected cell lines that are cultured with a test drug can give a sense of how these compounds may function in vivo if given to a latently HIV- infected individual. Therefore, compounds 4 and 5 were separately added for 72 hours to the chronically HIV-1 infected T cell line, ACH-2, and to the chronically HIV-1 infected promonocytic cell line, U1.
as §2

[6] = target: T2, HIV-1 reverse transcriptase (Human immunodeficiency virus type 1 group M subtype B, UniProt P04585); test: HIV-1 reverse transcriptase, RNA-dependent DNA polymerase associated activity; format: biochemical; set-up: HIV-1 reverse transcriptase was purified; made in house; host or cells: Escherichia coli JM 109 containing pKRT 2 (plasmid provided by W. C. Summers, Yale University); details: for HIV-1 reverse transcriptase inhibitory activity: template-primer dependent, result in words; for IC50: mean ± standard deviation of three
Method: (§3) HIV-1 reverse transcriptase was purified using Escherichia coli JM 109 containing pKRT 2 kindly provided by W. C. Summers (Yale University).
(§4) Enzyme Assay. All reactions were developed in a total volume of 50 μl containing 50 mMTris HCl pH 7.8, 2 mM MgCl2, 100 μg/mL nuclease-free BSA, 1 mM dithiothreitol, 0.5 O.D.260 unit/mL of template-primer, and 330 nM of [^3 H]dNTP according to Cheng et al.

[7] = target: T2, HIV-1 reverse transcriptase; test: HIV-1 reverse transcriptase, DNA-dependent DNA polymerase associated activity; format: biochemical; set-up: HIV-1 reverse transcriptase was purified; made in house; host or cells: Escherichia coli JM 109 containing pKRT 2 (plasmid provided by W. C. Summers, Yale University); details: for inhibitory effect against RT-associated DNA polymerase activity: under certain conditions
Method: as §3, §4

[8] = target: T2, HIV-1 reverse transcriptase; details: more with Poly(rC)-olig(dG) than with Poly(rA)-olig(dT); cited from earlier work
[9] = Human immunodeficiency virus 1, H9, text, acutely infected H9 cells, read-out: EC50 (anti-HIV activity)
[10] = Human immunodeficiency virus 1, Lymphocyte, Table I, acutely infected H9 lymphocytes, read-out: EC50
[11] = Human immunodeficiency virus 1, Lymphocyte, Table IA, acutely infected H9 lymphocytes, read-out: EC50
[12] = Homo sapiens, H9, Table I, cytotoxicity, uninfected H9 cells, read-out: IC50
[13] = Poly(rA)-poly(dT) as substrate, or Mg^+2 as divalent cation
[14] = Poly(rG)-poly(dC) as substrate, Mn^+2 (0.4 mM)
[15] = template-primer poly(rA)-olig(dT)10
[16] = template-primer poly(rC)-olig(dG)12-18
[17] = Poly(dA)-olig(dT) as template primer
[18] = Table II, template-primer printed poly(rA)-olig(dT)^10, mean ± standard deviation of three

Row | SMILES | Therapeutic Index (HIV-1 (IIIB isolate) [2]; Table I, IC50/EC50) | Therapeutic Index (HIV-1 (IIIB isolate) [2]; Table IA, ratio IC50/EC50) | therapeutic index (TI) (HIV-1 (IIIB isolate) [2]) | EC50 (HIV-1 (IIIB isolate) [2]; [9]) [µg/mL] | EC50 (HIV-1 (IIIB isolate) [2]; [10]) [µg/mL] | EC50 (HIV-1 (IIIB isolate) [2]; [11]) [µg/mL] | IC50 (H9 T cell line; [12]) [µg/mL] | inhibition of HIV RT associated RNase H activity [3, 13] | inhibition of HIV RT associated RNase H activity [3, 14] | inhibition of HIV RT associated RNase H activity ([3]; under certain conditions) | induction of virus expression [4] | alteration in the level of virus expression [4] | p24 ([4]; +Media, 0.0064 μg/mL) [pg/mL] | p24 ([4]; +Media, 0.032 μg/mL) [pg/mL] | p24 ([4]; +Media, 0.16 μg/mL) [pg/mL] | p24 ([4]; +Media, 0.8 μg/mL) [pg/mL] | p24 ([4]; +Media, 4 μg/mL) [pg/mL] | p24 ([4]; +Media, 20 μg/mL) [pg/mL] | p24 ([4]; +PMA, 0.0064 μg/mL) | p24 ([4]; +PMA, 0.032 μg/mL) | other results
1 | COc1c(OCc2ccccc2)c(OCc2ccccc2)cc(CO)c1-c1c(CO)cc(OCc2ccccc2)c(OCc2ccccc2)c1OC [Compound 2, 4,4',5,5'-tetrakis(benzyloxy)-6,6'-dimethoxy-2,2'-dihydroxymethyl biphenyl] | – | – | – | – | – | – | – | – | – | – | – | – | – | – | – | – | – | – | – | – | anti-HIV activity (HIV-1 (IIIB isolate) [1]; parent compound, comparable to that of DDB): does possess anti-HIV activity
2 | COC(=O)c1cc(OC)c2c(c1-c1c(C(=O)OC)cc(OC)c3c1OCO3)OCO2 [Compound 3, 4,4'-dimethoxy-5,6,5'6'-dimethylenedioxy-2,2'-dimethoxycarbonyl biphenyl, reference compound] | > 20 | > 20 | – | – | – | – | – | – | – | – | – | – | – | – | – | – | – | – | – | – | EC50 (HIV-1 (IIIB isolate) [2]; Human immunodeficiency virus 1, IIIB, Lymphocyte): 5 µg/mL (≈ 12 µM); IC50 (H9 T cell line; Homo sapiens, H9): > 100 µg/mL; IC50 (H9 T cell line; T-cell): > 100 µg/mL; TI (HIV-1 (IIIB isolate) [1]; background section): > 20
3 | COC(=O)c1cc(OC)c2c(c1-c1c3c(c(OC)c(Br)c1C(=O)OC)OCO3)OCO2 [Compound 4, 3-Bromo-4,4'-dimethoxy-5,6,5',6'-bimethylenedioxy-2,2'-dimethoxycarbonyl biphenyl] | > 190 | 190 | 190 | 0.52 (≈ 1.05 µM) | 0.52 (≈ 1.05 µM) | 0.52 (≈ 1.05 µM) | > 100 | no inhibition | almost equal potency | Potent inhibitory effects | no increase in the induction of virus expression | no alteration in the level of virus expression | 7 | 10 | 12 | 11 | 11 | 22 | 8,314 pg/mL | 7,200 pg/mL | IC50 (H9 T cell line; T-cell, Table IA, concentration that causes a 50% reduction in total cell number): 100 µg/mL (≈ 201 µM); p24 ([4]; +PMA, 0.16 μg/mL): 7,616 pg/mL; p24 ([4]; +PMA, 0.8 μg/mL): 8,774 pg/mL; p24 ([4]; +PMA, 4 μg/mL): 13,376 pg/mL; p24 ([4]; +PMA, 20 μg/mL): 10,746 pg/mL; induction of virus expression [5]: no increase in the induction of virus expression; alteration in the level of virus expression [5]: no alteration in the level of virus expression; HIV-1 reverse transcriptase inhibitory activity [6]: template-primer HIV-1 reverse transcriptase inhibitory activity; IC50 [6, 15]: 4500 ± 1000 nM; IC50 [6, 16]: 2200 ± 600 nM; IC50 [7, 17]: 56 nM; IC50 [7, 18]: 56 ± 3 nM; inhibitory effect against RT-associated DNA polymerase activity [7]: Potent inhibitory effects
4 | COC(=O)c1c(Br)c(OC)c2c(c1-c1c3c(c(OC)c(Br)c1C(=O)OC)OCO3)OCO2 [Compound 5, 3,3'-Dibromo-4,4'-dimethoxy-5,6,5'6'-bimethylenedioxy-2,2'-dimethoxycarbonyl biphenyl] | > 480 | > 480 | > 480 | 0.23 (≈ 0.399 µM) | 0.23 (≈ 0.399 µM) | 0.23 (≈ 0.399 µM) | > 100 | no inhibition | almost equal potency | Potent inhibitory effects | no increase in the induction of virus expression | no alteration in the level of virus expression | 17 | 15 | 13 | 14 | 16 | 15 | 7,590 pg/mL | 8,320 pg/mL | IC50 (H9 T cell line; T-cell, Table IA, concentration that causes a 50% reduction in total cell number, read-out: IC50): > 100 µg/mL; p24 ([4]; +PMA, 0.16 μg/mL): 9,850 pg/mL; p24 ([4]; +PMA, 0.8 μg/mL): 11,482 pg/mL; p24 ([4]; +PMA, 4 μg/mL): 10,598 pg/mL; p24 ([4]; +PMA, 20 μg/mL): 10,131 pg/mL; induction of virus expression [5]: no increase in the induction of virus expression; alteration in the level of virus expression [5]: no alteration in the level of virus expression; HIV-1 reverse transcriptase inhibitory activity [6]: template-primer HIV-1 reverse transcriptase inhibitory activity; IC50 [6, 15]: 1900 ± 900 nM; IC50 [6, 16]: 11000 ± 500 nM; IC50 [7, 17]: 48 nM; IC50 [7, 18]: 48 ± 4 nM; inhibitory effect against RT-associated DNA polymerase activity [7]: Potent inhibitory effects
5 | Cc1ccnc2c1NC(=O)c1cccnc1N2C1CC1 [Nevarapine] | – | – | – | – | – | – | – | – | – | – | – | – | – | – | – | – | – | – | – | – | inhibitory activity using Poly(rC)-olig(dG) versus Poly(rA)-olig(dT) [8]: more inhibitory activity
